target: T1, human MC2R (Homo sapiens, UniProt Q01718); test: Measurement of human MC2R inhibitory activity using intracellular cAMP concentration as an indicator; format: cell-based; details: test compound at 1 µM; GeneBLAzer MC2R-CRE-bla CHO-K1 cells; ACTH (Human 1-24) final concentration 3 pM; intracellular cAMP by HTRF; read-out: MC2R inhibition rate (% of inhibition)
T1 construct: host or cells: GeneBLAzer MC2R-CRE-bla CHO-K1 cells
Method in brief: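 MC2R-CRE-bla CHO-K1 cells at 1,500/well in HBSS with 10 mM HEPES pH 7.5, 0.01% BSA and 500 µM IBMX, preincubated 20 min with compound, then stimulated with 3 pM ACTH(1-24) for 30 min at room temperature. cAMP read by HTRF; % inhibition from the ACTH-stimulated and unstimulated windows.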

T1 sequence (Q01718 whole entry): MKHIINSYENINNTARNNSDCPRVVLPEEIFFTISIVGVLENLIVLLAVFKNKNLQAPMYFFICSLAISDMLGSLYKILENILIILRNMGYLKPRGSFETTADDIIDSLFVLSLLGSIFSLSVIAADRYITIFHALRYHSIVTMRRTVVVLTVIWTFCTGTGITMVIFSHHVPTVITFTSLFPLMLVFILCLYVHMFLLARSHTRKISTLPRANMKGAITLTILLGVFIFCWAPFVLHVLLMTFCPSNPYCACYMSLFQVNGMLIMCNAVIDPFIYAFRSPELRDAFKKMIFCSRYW
T1 sequence (Q8TCY5 whole entry partner): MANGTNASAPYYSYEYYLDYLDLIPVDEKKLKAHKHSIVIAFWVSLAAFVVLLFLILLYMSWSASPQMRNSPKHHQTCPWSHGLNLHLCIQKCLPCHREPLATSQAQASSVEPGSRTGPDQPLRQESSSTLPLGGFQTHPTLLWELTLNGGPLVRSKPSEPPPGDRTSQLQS

SMILES	inhibition at 1 µM [%]
CCOc1ncccc1-c1ccc(N2C[C@H]3CN(c4ccc(Cl)cc4C(F)(F)F)C(=O)N3C[C@H]2CC)c(C(=O)NC2CNC(=O)C2)n1 (stereo partly drawn) [Example 29, 3-[(6R,8aS)-2-[4-chloro-2-(trifluoromethyl)phenyl]-6-ethyl-3-oxo-5,6,8,8a-tetrahydro-1H-imidazo[1,5-a]pyrazin-7-yl]-6-(2-ethoxypyridin-3-yl)-N-(5-oxopyrrolidin-3-yl)pyridine-2-carboxamide]	100
CCOc1ncccc1-c1ccc(N2CCN3C(=O)N(c4ccc(Cl)cc4C(F)(F)F)C[C@@H]3C2)c(C(=O)N[C@@H]2CCN(C)C2)n1 [Example 23, 3-[(8aS)-2-[4-chloro-2-(trifluoromethyl)phenyl]-3-oxo-5,6,8,8a-tetrahydro-1H-imidazo[1,5-a]pyrazin-7-yl]-6-(2-ethoxypyridin-3-yl)-N-[(3R)-1-methylpyrrolidin-3-yl]pyridine-2-carboxamide]	100
CCOc1ncccc1-c1ccc(N2C[C@H]3CN(c4ccc(Cl)cc4C(F)(F)F)C(=O)N3C[C@H]2CC)c(C(=O)NCC2(O)CC2)n1 [Example 32, 3-[(6R,8aS)-2-[4-chloro-2-(trifluoromethyl)phenyl]-6-ethyl-3-oxo-5,6,8,8a-tetrahydro-1H-imidazo[1,5-a]pyrazin-7-yl]-6-(2-ethoxypyridin-3-yl)-N-[(1-hydroxycyclopropyl)methyl]pyridine-2-carboxamide]	100
CCOc1ncccc1-c1ccc(N2CCN3C(=O)N(c4ccc(Cl)cc4C(F)(F)F)CC3C2)c(C(N)=O)n1 (centres unmarked) [Example 2, 3-[2-[4-chloro-2-(trifluoromethyl)phenyl]-3-oxo-5,6,8,8a-tetrahydro-1H-imidazo[1,5-a]pyrazin-7-yl]-6-(2-ethoxypyridin-3-yl)pyridine-2-carboxamide]	99
CCOc1ncccc1-c1ccc(N2CCN3C(=O)N(c4ccc(Cl)cc4C(F)(F)F)C[C@@H]3C2)c(C(=O)NCCN(C)C)n1 [Example 6, 3-[(8aS)-2-[4-chloro-2-(trifluoromethyl)phenyl]-3-oxo-5,6,8,8a-tetrahydro-1H-imidazo[1,5-a]pyrazin-7-yl]-N-[2-(dimethylamino)ethyl]-6-(2-ethoxypyridin-3-yl)pyridine-2-carboxamide]	100

Continued, values first:

inhibition at 1 µM [%]	SMILES
100	CCOc1ncccc1-c1ccc(N2C[C@H]3CN(c4ccc(Cl)cc4C(F)(F)F)C(=O)N3C[C@H]2CC)c(C(=O)N[C@@H]2CNC(=O)C2)n1 [Example 39, 3-[(6R,8aS)-2-[4-chloro-2-(trifluoromethyl)phenyl]-6-ethyl-3-oxo-5,6,8,8a-tetrahydro-1H-imidazo[1,5-a]pyrazin-7-yl]-6-(2-ethoxypyridin-3-yl)-N-[(3S)-5-oxopyrrolidin-3-yl]pyridine-2-carboxamide]
100	CCOc1ncccc1-c1ccc(N2C[C@H]3CN(c4ccc(Cl)cc4C(F)(F)F)C(=O)N3C[C@H]2CC)c(C(=O)N[C@H]2CC(=O)N(C)C2)n1 [Example 50, 3-[(6R,8aS)-2-[4-chloro-2-(trifluoromethyl)phenyl]-6-ethyl-3-oxo-5,6,8,8a-tetrahydro-1H-imidazo[1,5-a]pyrazin-7-yl]-6-(2-ethoxypyridin-3-yl)-N-[(3S)-1-methyl-5-oxopyrrolidin-3-yl]pyridine-2-carboxamide]
98	CCOc1ccccc1-c1ccc(N2C[C@H]3CN(C4(C(F)(F)F)CC4)C(=O)N3C[C@H]2CC)c(C(=O)N[C@@H]2CC(=O)N(C)C2)n1 [Example 62, 3-[(6R,8aS)-6-ethyl-3-oxo-2-[1-(trifluoromethyl)cyclopropyl]-5,6,8,8a-tetrahydro-1H-imidazo[1,5-a]pyrazin-7-yl]-6-(2-ethoxyphenyl)-N-[(3R)-1-methyl-5-oxopyrrolidin-3-yl]pyridine-2-carboxamide]
